Assay results as given in patent US20260053931A1, “MDM2 TARGETING PROTACS” (THE WISTAR INSTITUTE OF ANATOMY AND BIOLOGY, priority 2023, published 2026).

Experiments:
[1] = tested on: MDA-MB-231 and MDA-MB-436 cells; assay: Mammosphere formation in 3D culture; format: cell-based, human; conditions: each concentration tested, 72 hrs, compared to MDM2 inhibitors and vehicle
Description: (§1) FIGS. 21A-21E show the apoptosis induction of p53-inactivated TNBC cells in 2D and 3D cultures by the MDM2-PROTAC YX-02-030. A-B. Colony formation assays (A. Triplicate, 12 days) and mammosphere formation (B. Triplicate 72 hrs) of MDA-MB-231 and MDA-MB-436 cells in the presence of the indicated compounds or DMSO control (−); representative pictures shown. C-E. Formed mammospheres of MDA-MB-231 and MDA-MB-436 cells were treated with the compounds indicated or DMSO control (−), and area (C. n=10 mammospheres, relative to pre-treatment area, 72 hr), real-time imaging (IncuCyte) and quantification of Caspase-3/7 activity (D. n=4-5 wells/compound), and survival/ATP assays (E. Quadruplicate, 72 hr) were performed; representative images shown; scale bar 300 m. Mean±SEM (A-C and E). For A, *P<0.0001 and **P<0.0001, comparing 1 M and 2 M PROTAC, respectively, to control compounds and DMSO vehicle control. For B, *P<0.0046, **P<0.0001, and ***P<0.0001, comparing 0.5 M, 1 M, and 2 M PROTAC, respectively, to control compounds and DMSO vehicle control. For C, *P<0.0001 and **P<0.0001, comparing 2 M and 4 M/6 M PROTAC, respectively, to control compounds and DMSO vehicle control. […]
(§2) These were then evaluated in 3D culture as to when the YX-02-030 was effective at preventing TNBC cell mammosphere formation and eliminating already formed mammospheres. […]

[2] = tested on: MDA-MB-231 and MDA-MB-436 TNBC xenografts; assay: TNBC xenografts in nude mice; format: in vivo, mouse
Description: A-G. MDA-MB-231 and MDA-MB-436 cells were injected (subcutaneous) into one flank of nude mice and allowed to form palpable tumors (approximately 80 mm^3). Mice (randomized into tumor-size matched groups) were treated (intraperitoneal injection) with MDM2-PROTAC YX-02-030, RG7112D, or vehicle control at 50 mg/kg once daily for 14 days (treatment start, green arrow and stop, red arrow). Kaplan-Meier survival analysis (A) and tumor volume (B; individual, left and averaged, right) were evaluated overtime. C-G, After 72 hr of treatment, tumors (n=3/group; −, vehicle control) were harvested and protein expression evaluated by Western blotting (C), Annexin-V positivity (D), Caspase-3 activity (E), apoptotic subG1 DNA content (F), and viability by Trypan Blue dye exclusion (G). Mean±SD (B (right), D-G). Log-rank tests for A, and longitudinal tumor growth analysis using 2-way ANOVA with Bonferroni correction for B; P-values indicated. *P<0.0021 for D, *P<0.0001 for E, *P<0.0147 for F, and *P<0.0014 for G were determined using unpaired two-tailed t-tests, comparing PROTAC to vehicle control.
Prior to testing YX-02-030 tumors in vivo, mouse liver microsome and pharmacokinetic (PK) studies were performed to determine its stability in vivo. […] Due to its stability in vivo, the effectiveness of YX-02-030 was then evaluated at killing TNBC tumors in mice. Xenografts of MDA-MB-231 and MDA-MB-436 TNBC cells grew to ˜80 mm^3, and then tumor size-matched mice were treated with YX-02-030, RG7112D control compound, or vehicle control. […] To confirm YX-02-030 was hitting its target (MDM2) in the TNBC tumors, tumors were harvested from a cohort of mice after 72 hours of YX-02-030 treatment. […] The toxicity of YX-2-228 was analyzed as compared to both the vehicle and YX-2-30. (FIGS. 25A & 25B).

MDA-MB-436 mammospheres = assay: Area of formed mammospheres, MDA-MB-436; format: cell-based, human; conditions: MDA-MB-436, 3-fold lower concentration than the MDM2 inhibitors, 72 hr
Description: as §1, §2

Mdm2-VHL = Mdm2-VHL (Homo sapiens, UniProt P40337+Q00987); assay: AlphaScreen ternary complex formation; format: binding; conditions: GST-MDM2 and HIS-VHL
Chain of Mdm2-VHL (Q00987 whole entry): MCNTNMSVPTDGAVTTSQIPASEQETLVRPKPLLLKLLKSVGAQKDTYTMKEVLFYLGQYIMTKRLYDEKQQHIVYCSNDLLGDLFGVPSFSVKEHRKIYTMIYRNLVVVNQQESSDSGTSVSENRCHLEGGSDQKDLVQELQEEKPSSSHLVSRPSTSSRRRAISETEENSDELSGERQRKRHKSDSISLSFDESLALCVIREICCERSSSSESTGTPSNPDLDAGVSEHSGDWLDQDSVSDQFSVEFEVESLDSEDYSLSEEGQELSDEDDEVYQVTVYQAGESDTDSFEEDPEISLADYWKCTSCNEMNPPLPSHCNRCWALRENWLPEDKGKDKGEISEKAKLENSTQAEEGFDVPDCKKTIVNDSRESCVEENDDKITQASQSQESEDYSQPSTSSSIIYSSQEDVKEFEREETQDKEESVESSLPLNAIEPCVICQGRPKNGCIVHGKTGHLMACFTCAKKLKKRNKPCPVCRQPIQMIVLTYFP
Chain of Mdm2-VHL (P40337 whole entry): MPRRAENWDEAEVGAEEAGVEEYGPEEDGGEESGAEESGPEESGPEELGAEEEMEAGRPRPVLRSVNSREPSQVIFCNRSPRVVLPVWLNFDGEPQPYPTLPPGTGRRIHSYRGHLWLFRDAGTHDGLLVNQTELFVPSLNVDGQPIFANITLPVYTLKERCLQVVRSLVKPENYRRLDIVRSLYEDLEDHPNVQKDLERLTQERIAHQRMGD
Chain of Mdm2-VHL (Q15370 whole entry partner): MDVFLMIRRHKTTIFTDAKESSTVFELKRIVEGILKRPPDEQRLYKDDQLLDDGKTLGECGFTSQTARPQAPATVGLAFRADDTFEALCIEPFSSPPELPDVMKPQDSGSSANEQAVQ
Chain of Mdm2-VHL (Q15369 whole entry partner): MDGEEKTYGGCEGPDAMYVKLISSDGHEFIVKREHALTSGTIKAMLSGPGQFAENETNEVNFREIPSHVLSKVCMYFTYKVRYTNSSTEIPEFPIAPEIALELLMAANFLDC
Description: (§3) A. Chemical structure of MDM2-PROTAC. B-C. MDM2:p53 and MDM2:VHL-HIF1α peptide binding inhibition determined by homogeneous time-resolved fluorescence (HTRF, triplicate, mean±SEM, B) and surface plasmon resonance (SPR, triplicate, mean±SD, C. Binding assays by the indicated compounds. Graphical data is representative of 3 separate experiments. D. AlphaScreen of ternary complex using GST-MDM2 and HIS-VHL; mean±SD. E-F. Western blot analysis for the proteins indicated following a dose-titration (E, 16 hr) and time course (F, 6 μM) with the PROTAC or vehicle control (DMSO, −) in MDA-MB-231 (p53-mutant) and MDA-MB-436 (p53-delete) cells. G-K. Western blot analysis for the proteins indicated following treatment with the MDM2-PROTAC and/or the neddylation activating enzyme inhibitor MLN4924 G.

Mdm2 = Mdm2 (Homo sapiens, UniProt Q00987); assay: Western blot of TNBC cells treated with PROTAC; format: cell-based; design: endogenous in cells; MDA-MB-231 (A9)
Chain of Mdm2 (Q00987 whole entry): as the sequence (Q00987 whole entry) above
Description: as §3
PROTACs work by forming a ternary complex consisting of the target protein, the PROTAC, and the recruited E3 ubiquitin ligase-E2 complex, causing ubiquitination of the target protein, marking it for 26S proteasome-mediated degradation (Nalawansha & Crews, 2020). FIG. 19D confirms that the PROTAC forms a […] complex. […] Similarly, when the proteasome was inhibited with MG132, MDM2 protein levels were maintained despite YX-02-030 exposure (FIG. 19H). Therefore, YX-02-030 targets MDM2 protein for 26S proteasome-mediated degradation in TNBC cells and this requires the ubiquitin cascade.

VHL = VHL (Homo sapiens, UniProt P40337); assay: HTRF binding assay for VHL (Table 2)
Chain of VHL (P40337 whole entry): as the sequence (P40337 whole entry) above
Chain of VHL (Q15370 whole entry partner): as the sequence (Q15370 whole entry partner) above
Chain of VHL (Q15369 whole entry partner): as the sequence (Q15369 whole entry partner) above
Description: Biochemical assays in 384-well format have established to assess the binding of newly synthesized PROTACs to the appropriate E3 ligase using HTRF technology. In these assays an anti-HIS antibody conjugated to terbium was used as the donor fluor, and either a Cy5 labeled small molecule probe, or a biotinylated peptide that is bound to a streptavidin acceptor.

[3] = 50 mg/kg IP once daily for 14 days, compared to control mice

| SMILES | mammosphere formation [1] | mouse survival [2, 3] | tumor volume [2, 3] | mouse weight ([2]; nude mice, 50 mg/kg IP, 14 consecutive days) | MDM2 protein in tumors ([2]; tumors harvested after 72 hours of treatment) | reduction of mammosphere area (MDA-MB-436 mammospheres) | ternary complex formation (Mdm2-VHL) | MDM2 protein level (Mdm2; MDA-MB-231 (mutated p53) and MDA-MB-436 (deleted p53), dose titration 16 hr, time course 6 μM) | VHL protein level (Mdm2; Western blot) | IC50 (VHL) |
| --- | --- | --- | --- | --- | --- | --- | --- | --- | --- | --- |
| CCOc1cc(C(C)(C)C)ccc1C1=N[C@](C)(c2ccc(Cl)cc2)[C@](C)(c2ccc(Cl)cc2)N1C(=O)N1CCN(CC(=O)NCCOCCOCCOCC(=O)N[C@H](C(=O)N2C[C@H](O)C[C@H]2C(=O)NCc2ccc(-c3scnc3C)cc2)C(C)(C)C)CC1 (racemic) [YX-02-030] | significantly fewer mammospheres formed | significantly extended mouse survival | decreased tumor volume | mouse weight was maintained | loss of MDM2 protein | 43.8% | efficiently form a ternary complex | loss of MDM2 protein | not degraded |  |
| CCOc1cc(C(C)(C)C)ccc1C1=N[C@](C)(c2ccc(Cl)cc2)[C@](C)(c2ccc(Cl)cc2)N1C(=O)N1CCN(CC(=O)NCCCNC(=O)COc2ccc3c(c2)CN(C(=O)[C@H](NC(=O)[C@@H](C)NC)C(C)(C)C)[C@@H](C(=O)N[C@H]2CCCc4ccccc42)C3)CC1 [YX-02-228, (R)-7-(2-((3-(2-(4-((4R,5S)-2-(4-(tert-butyl)-2-ethoxyphenyl)-4,5-bis(4-chlorophenyl)-4,5-dimethyl-4,5-dihydro-1H-imidazole-1-carbonyl)piperazin-1-yl)acetamido)propyl)amino)-2-oxoethoxy)-2-((R)-3,3-dimethyl-2-((R)-2-(methylamino)propanamido)butanoyl)-N-((S)-1,2,3,4-tetrahydronaphthalen-1-yl)-1,2,3,4-tetrahydroisoquinoline-3-carboxamide] |  |  |  |  |  |  |  |  |  | > 10 µM |
